# Test results published in patent publication US20120258980A1, “Antibacterial Agent for Drug-Resistant Bacteria, Method for Screening for Same, and Use of Same” (priority 2009, published 2012).
# Where two headings read alike, the source gives them in different places.
# Assays:
# [1] = test system: methicillin-susceptible S. aureus (MSSA), MRSA and mutants thereof; assay: MIC measurement, Test Example 3 (MSSA, MRSA and sequential gyrA/grlA quinolone-resistant mutants); format: cell-based, Staphylococcus aureus; settings: Staphylococcus aureus
# Source text: That is, the first-step quinolone-resistant mutants are bacterial strains which are the same as their parent strains (clinical isolates) except that the genes shown in the corresponding parts of Table 1-1 are mutated. The second-step quinolone-resistant mutants are bacterial strains which are the same as the first-step quinolone-resistant mutants except that the genes shown in the corresponding parts of Table 1-1 are further mutated. The third-step quinolone-resistant mutants are bacterial strains which are the same as the second-step quinolone-resistant mutants except that the genes shown in the corresponding parts of Table 1-1 are further mutated. The fourth-step quinolone-resistant strain is a bacterial strain which is the same as the third-step quinolone-resistant mutant bacteria except that the gene shown in the corresponding part of Table 1-1 is further mutated.
# (§1) Each of the bacterial strains listed in Table 1-1 was shake-cultured at 37° C. overnight in 4 mL of a medium (Tryptical Soy Broth: TSB, product of Becton Dickinson and Company). FDA209P was used as a control.
# (§2) After completion of culturing, the resultant culture was suspended in a cation-adjusted Mueller Hinton Broth (CAMHB, product of Becton Dickinson and Company). Then, the obtained bacterial culture was adjusted in absorbance with the CAMHB so that the absorbance at 578 nm of the bacterial culture was adjusted to 0.3 measured by an absorption spectrometer. In addition, the resultant bacterial culture was 500-fold diluted with the CAMHB.
# (§3) Each of the 500-fold diluted, pre-cultured bacterial cultures was added at 50 μL/well to the CAMHB containing the quinolones and the nybomycins at various concentrations (50 μL/well), followed by statically culturing at 37° C. overnight.
# (§4) After completion of culturing, the growth of the bacteria was visually determined based on turbidity to measure MIC in each bacterial strain.
# [2] = test system: MRSA, CA-MRSA and MSSA of Staphylococcus aureus; assay: MIC measurement, Test Example 4 (MRSA, CA-MRSA and MSSA strains); format: cell-based; settings: Staphylococcus aureus
# Outline: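 S. aureus strains (FDA209P control) grown overnight in TSB at 37° C, resuspended in CAMHB, adjusted to A578 0.3 and diluted 500-fold. Equal volume added to CAMHB with serial compound concentrations, incubated statically overnight at 37° C. MIC read visually as lowest concentration without turbidity.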
# [3] = test system: VISA clinical isolates of MRSA (VI-MRSA) and of MSSA (VI-MSSA); assay: microbe, parasite or virus in culture; format: cell-based, Staphylococcus aureus
# Method: as §1, §2, §3, §4
# Here, the glycopeptides used were VCM and TEIC. The β-lactam used was OXA.
# Enterococcus faecalis = assay: MIC measurement, Test Example 6 (enterococcus); format: cell-based; settings: Enterococcus faecalis, read-out: MIC
# Method: as §1, §2, §3, §4
# Quinolones and nybomycins were evaluated for antibacterial activity against Enterococcus faecalis shown in Table 6, wherein the other strains than NCTC12201 and NCTC12203 were subdivided from Shionogi & Co., Ltd (note that these strains are available also from the Department of Bacteriology, Juntendo University). The NCTC strains are both vancomycin-resistant E. faecalis and available from the National Collection of Type Cultures (NCTC).
structure (smiles),measurement,setting,value
"C[C@H]1COc2c(N3CCN(C)CC3)c(F)cc3c(=O)c(C(=O)O)cn1c23 [LVFX, levofloxacin]",MIC,"[1]; FDA209P / MRSA / MSSA, FDA209P (MSSA), control, read-out: MIC",≤ 0.063 µg/mL
same,MIC,"[1]; MR5867-4, fourth-step mutant, further gyrA E88K",> 128 µg/mL
same,MIC,"[1]; MS5935-3, third-step mutant, further grlA E84K",64 µg/mL
same,MIC,"[1]; MS5952-3, third-step mutant, further grlA A116V",32 µg/mL
same,MIC,"[2]; ATCC 29213 / MRSA / MSSA, ATCC 29213, MSSA",0.125 µg/mL
same,MIC,"[2]; COL, MRSA",0.5 µg/mL
same,MIC,"[2]; FDA209P / MRSA / MSSA, FDA209P, MSSA",≤ 0.063 µg/mL
same,MIC,"[2]; ISA12-1, MRSA",0.25 µg/mL
same,MIC,"[2]; ISA12-2, MRSA",0.25 µg/mL
same,MIC,"[2]; ISA35-1, MRSA",1 µg/mL
same,MIC,"[2]; ISA37-1, MSSA",0.25 µg/mL
same,MIC,"[2]; ISA49-1, MSSA",0.25 µg/mL
same,MIC,"[2]; ISA51-1, MSSA",0.25 µg/mL
same,MIC,"[2]; ISA56-3, MRSA",0.25 µg/mL
same,MIC,"[2]; ISA58-1, MRSA",0.5 µg/mL
same,MIC,"[2]; ISA62-1, MRSA",0.25 µg/mL
same,MIC,"[2]; ISA73-1, MSSA",0.125 µg/mL
same,MIC,"[2]; KBSA32, MRSA",0.125 µg/mL
same,MIC,"[2]; KBSA34, MRSA",0.25 µg/mL
same,MIC,"[2]; KBSA72, MRSA",> 128 µg/mL
same,MIC,"[2]; KBSA96, MRSA",8 µg/mL
same,MIC,"[2]; KBSA171, MRSA",16 µg/mL
same,MIC,"[2]; KSA24, MRSA",8 µg/mL
same,MIC,"[2]; KSA31, MRSA",4 µg/mL
same,MIC,"[2]; KSA36, MRSA",> 128 µg/mL
same,MIC,"[2]; MRSA / MSSA / NCTC 8325, NCTC 8325, MSSA",0.25 µg/mL
same,MIC,"[2]; MRSA / MSSA / USA300, USA300 FPR3757, CA-MRSA",32 µg/mL
same,MIC,"[2]; MW2, CA-MRSA",0.125 µg/mL
same,MIC,"[2]; N315, MRSA",0.125 µg/mL
same,MIC,"[3]; Staphylococcus aureus, 99/3700-W, VI-MRSA, The United Kingdom",16 µg/mL
same,MIC,"[3]; Staphylococcus aureus, 99/3759-V, VI-MRSA, The United Kingdom",16 µg/mL
same,MIC,"[3]; Staphylococcus aureus, 28160, VI-MRSA, South African Republic",8 µg/mL
same,MIC,"[3]; Staphylococcus aureus, 98141, VI-MRSA, France",16 µg/mL
same,MIC,"[3]; Staphylococcus aureus, A7 (JCSC4842), VI-MRSA, Taiwan",8 µg/mL
same,MIC,"[3]; Staphylococcus aureus, AMC11094, VI-MRSA, Korea",16 µg/mL
same,MIC,"[3]; Staphylococcus aureus, B7 (JCSC4852), VI-MRSA, Taiwan",8 µg/mL
same,MIC,"[3]; Staphylococcus aureus, BR1, VI-MRSA, Brazil",16 µg/mL
same,MIC,"[3]; Staphylococcus aureus, BR2, VI-MRSA, Brazil",8 µg/mL
same,MIC,"[3]; Staphylococcus aureus, BR3, VI-MRSA, Brazil",16 µg/mL
same,MIC,"[3]; Staphylococcus aureus, BR4, VI-MRSA, Brazil",8 µg/mL
same,MIC,"[3]; Staphylococcus aureus, BR5, VI-MRSA, Brazil",16 µg/mL
same,MIC,"[3]; Staphylococcus aureus, HIP06297, VI-MRSA, America",4 µg/mL
same,MIC,"[3]; Staphylococcus aureus, HIP06854, VI-MRSA, America",16 µg/mL
same,MIC,"[3]; Staphylococcus aureus, HIP07920, VI-MRSA, America",8 µg/mL
same,MIC,"[3]; Staphylococcus aureus, HIP07930, VI-MRSA, America",32 µg/mL
same,MIC,"[3]; Staphylococcus aureus, HIP08926, VI-MRSA, America",16 µg/mL
same,MIC,"[3]; Staphylococcus aureus, HIP09143, VI-MRSA, America",32 µg/mL
same,MIC,"[3]; Staphylococcus aureus, HIP09313, VI-MRSA, America",8 µg/mL
same,MIC,"[3]; Staphylococcus aureus, HIP09433, VI-MRSA, America",32 µg/mL
same,MIC,"[3]; Staphylococcus aureus, HIP09662, VI-MRSA, America",32 µg/mL
same,MIC,"[3]; Staphylococcus aureus, HIP09735, VI-MRSA, America",8 µg/mL
same,MIC,"[3]; Staphylococcus aureus, HIP09737, VI-MSSA, America",32 µg/mL
same,MIC,"[3]; Staphylococcus aureus, HIP09740, VI-MRSA, America",32 µg/mL
same,MIC,"[3]; Staphylococcus aureus, HIP10267, VI-MRSA, America",32 µg/mL
same,MIC,"[3]; Staphylococcus aureus, HIP10540, VI-MRSA, America",8 µg/mL
same,MIC,"[3]; Staphylococcus aureus, HIP12864, VI-MRSA, America",32 µg/mL
same,MIC,"[3]; Staphylococcus aureus, HIP13036, VI-MRSA, America",4 µg/mL
same,MIC,"[3]; Staphylococcus aureus, HIP13057, VI-MRSA, America",16 µg/mL
same,MIC,"[3]; Staphylococcus aureus, IL (HIP7737), VI-MRSA, America",32 µg/mL
same,MIC,"[3]; Staphylococcus aureus, JCSC7193, VI-MRSA, Thailand",16 µg/mL
same,MIC,"[3]; Staphylococcus aureus, JCSC7195, VI-MRSA, Thailand",32 µg/mL
same,MIC,"[3]; Staphylococcus aureus, JCSC7203, VI-MRSA, Thailand",16 µg/mL
same,MIC,"[3]; Staphylococcus aureus, LIM2, VI-MRSA, France",32 µg/mL
same,MIC,"[3]; Staphylococcus aureus, LY-1999-01, VI-MSSA, Oman",4 µg/mL
same,MIC,"[3]; Staphylococcus aureus, LY-1999-03, VI-MRSA, Oman",4 µg/mL
same,MIC,"[3]; Staphylococcus aureus, MI (HIP5827), VI-MRSA, America",32 µg/mL
same,MIC,"[3]; Staphylococcus aureus, MRSA / MSSA / NRS 76 / VISA, NRS76, VI-MSSA, America",16 µg/mL
same,MIC,"[3]; Staphylococcus aureus, MRSA / MSSA / NRS 79 / VISA, NRS79, VI-MRSA, America",64 µg/mL
same,MIC,"[3]; Staphylococcus aureus, MRSA / MSSA / NRS 118 / VISA, NRS118, VI-MRSA, America",32 µg/mL
same,MIC,"[3]; Staphylococcus aureus, MRSA / MSSA / NRS 126 / VISA, NRS126, VI-MRSA, America",4 µg/mL
same,MIC,"[3]; Staphylococcus aureus, Mu3, VI-MRSA, Japan",16 µg/mL
same,MIC,"[3]; Staphylococcus aureus, Mu50, VI-MRSA, Japan",8 µg/mL
same,MIC,"[3]; Staphylococcus aureus, NJ (HIP5836), VI-MRSA, America",16 µg/mL
same,MIC,"[3]; Staphylococcus aureus, P1V44, VI-MSSA, Belgium",4 µg/mL
same,MIC,"[3]; Staphylococcus aureus, PC, VI-MRSA, America",8 µg/mL
same,MIC,"[3]; Staphylococcus aureus, SA MER-S6, VI-MSSA, France",0.5 µg/mL
same,MIC,"[3]; Staphylococcus aureus, SA MER-S12, VI-MSSA, France",0.5 µg/mL
same,MIC,"[3]; Staphylococcus aureus, SA MER-S20, VI-MSSA, France",0.125 µg/mL
same,MIC,"Enterococcus faecalis; E. faecalis 36-15672, quinolone-susceptible enterococci",1 µg/mL
same,MIC,"Enterococcus faecalis; E. faecalis 36-15673, quinolone-susceptible enterococci",1 µg/mL
same,MIC,"Enterococcus faecalis; E. faecalis 36-15678, quinolone-susceptible enterococci",1 µg/mL
same,MIC,"Enterococcus faecalis; E. faecalis 36-15686, quinolone-resistant enterococci",64 µg/mL
same,MIC,"Enterococcus faecalis; E. faecalis 36-15688, quinolone-susceptible enterococci",1 µg/mL
same,MIC,"Enterococcus faecalis; E. faecalis 36-15694, quinolone-resistant enterococci",64 µg/mL
same,MIC,"Enterococcus faecalis; E. faecalis 36-15696, quinolone-susceptible enterococci",1 µg/mL
same,MIC,"Enterococcus faecalis; E. faecalis 36-15703, quinolone-resistant enterococci",32 µg/mL
same,MIC,"Enterococcus faecalis; E. faecalis 36-15716, quinolone-resistant enterococci",32 µg/mL
same,MIC,"Enterococcus faecalis; E. faecalis 36-15718, quinolone-susceptible enterococci",2 µg/mL
same,MIC,"Enterococcus faecalis; E. faecalis 36-15720, quinolone-susceptible enterococci",1 µg/mL
same,MIC,"Enterococcus faecalis; E. faecalis 36-15722, quinolone-resistant enterococci",64 µg/mL
same,MIC,"Enterococcus faecalis; E. faecalis 36-15726, quinolone-resistant enterococci",64 µg/mL
same,MIC,"Enterococcus faecalis; E. faecalis 36-15730, quinolone-susceptible enterococci",2 µg/mL
same,MIC,"Enterococcus faecalis; E. faecalis 36-15736, quinolone-susceptible enterococci",1 µg/mL
same,MIC,"Enterococcus faecalis; E. faecalis 36-15741, quinolone-susceptible enterococci",2 µg/mL
same,MIC,"Enterococcus faecalis; NCTC 12201 / VRE, E. faecalis NCTC12201, vancomycin-resistant (VRE), quinolone-susceptible enterococci",1 µg/mL
same,MIC,"Enterococcus faecalis; NCTC 12203 / VRE, E. faecalis NCTC12203, vancomycin-resistant (VRE), quinolone-susceptible enterococci",1 µg/mL
